Laboratory results reported in patent publication US20220227759A1, “AMORPHOUS PI3K INHIBITOR AND PHARMACEUTICAL COMPOSITION COMPRISING SAME” (BORYUNG PHARMACEUTICAL CO., LTD, priority 2019, published 2022).

Test: Pharmacokinetic (PK) test
Format: in vivo
Settings: beagle dog, 100 mg, PO, capsule
Description: A pharmacokinetic (PK) experiment was performed on the amorphous compound of Example 1.
The powder of the amorphous compound of Example 1 was filled into a capsule in an amount of 100 mg, and the capsule was orally administered to a beagle dog at 100 mg once a day, and then the biokinetics of the drug was confirmed.
Specifically, 100 mg of the amorphous compound was orally administered to the beagle dog, and blood was collected at a predetermined time, so as to measure a concentration of (S)-4-((1-(4,8-dichloro-1-oxo-2-phenyl-1,2-dihydroisoquinoline-3-yl)ethyl)amino)pyrido[2,3-d]pyrimidine-5(8H)-one. With respect to pharmacokinetic parameters, the BA Calc 2007 program was used to calculate an area under the plasma concentration-time curve from dosing time to final plasma concentration quantification time t (AUCt), an area under the plasma concentration-time curve from dosing time to infinite time (AUCi), peak plasma concentration (Cmax), time for peak plasma concentration (Tmax), and terminal elimination half-life (t1/2). As a result, a significance between substances was confirmed by Student t-test (SPSS) at a 95% confidence interval, and the results thereof are shown in table 4 below.

For `C[C@H](Nc1ncnc2[nH]ccc(=O)c12)c1c(Cl)c2cccc(Cl)c2c(=O)n1-c1ccccc1` [Example 1, (S)-4-((1-(4,8-dichloro-1-oxo-2-phenyl-1,2-dihydroisoquinoline-3-yl)ethyl)amino)pyrido[2,3-d]pyrimidin-5(8H)-one], the blood concentration was “high blood concentration”.
